Data as given in patent publication US20060209305A1, “Biosensor” (FUJI PHOTO FILM CO., LTD., priority 2005, published 2006).

System: Carbonic Anhydrase
Test: Evaluation of Hydrochlorothiazide binding capacity by surface plasmon resonance on CA captured on an Anti-CA-immobilized chip
Conditions: two minutes after start of replacement
Protocol: The following experiment was carried out using a device shown in FIG. 22 of Japanese Patent Laid-Open No. 2001-330560 (hereinafter referred to as the surface plasmon resonance measurement device of the present invention) (shown in FIG. 1 of the present specification) and a dielectric block shown in FIG. 23 of Japanese Patent Laid-Open No. 2001-330560 (hereinafter referred to as the dielectric block of the present invention) (shown in FIG. 2 of the present specification).
After solutions were removed from the above dextran measuring chip, 70 μl of a mixture solution of 200 mM EDC (N-ethyl-N′-(3-dimethylaminopropyl)carbodiimide hydrochloride) and 50 mM NHS (N-hydroxysuccinimide) was added and the chip was then allowed to stand for 10 minutes. After the mixture solution was removed, the chip was washed three times with 100 μl of water and three times with 100 μl of Acetate 4.5 buffer (produced by Biacore). The chip filled with 100 μl of Acetate 4.5 buffer was set on the surface plasmon resonance measurement device of the present invention. The inside of the chip was replaced with anti-Carbonic Anhydrase antibody (hereafter referred to as Anti-CA, which was purchased from COSMO BIO Co., Ltd.(NOR)) solution (dissolved in Acetate 4.5 (produced by BIAcore) to […]), and the chip was allowed to stand for 30 minutes for immobilizing the Anti-CA. The inside of the chip was then replaced with 1M ethanolamine solution, and the chip was allowed to stand for 10 minutes. The inside of the chip was washed ten times with 100 μl of Acetate 4.5 buffer, thereby preparing an Anti-CA-immobilized chip. The amount of change in resonance signal due to Anti-CA immobilization was 15,000RU. After the measurement of the signal change, the inside of the Anti-CA-immobilized chip was washed three times with 100μl of 1×PBS (pH7.4) buffer (Wako Pure Chemical Industries, Ltd.).
The dielectric block of the Anti-CA-immobilized chip was then capped with a silicon rubber, thereby preparing a cell with an inner volume of 15 μl. Also, a fluid channel system was prepared by making two 1-mm φ holes in the silicon rubber cap and putting a teflon tube (registered trademark) with an internal diameter of 0.5 mm and an external diameter of 1 mm through the holes. Individual chips with such fluid channel system were set on the surface plasmon resonance measurement device of the present invention.
The inside of the fluid channel system was filled with 1×PBS (pH7.4) buffer. Signal changes were measured at 0.5 seconds intervals with reference to the signal prior to the replacement of the fluid. The inside of the fluid channel system was then replaced with Carbonic Anhydrase (produced by SIGMA, hereinafter referred to as CA) solution (dissolved in 1×PBS (pH7.4) to 100 μg/ml). When the binding signal reached 3,000RU, the inside was replaced with Hydrochlorothiazide (produced by SIGMA) solution (dissolved in 1×PBS (pH7.4) to 50 μM) by the individual methods indicated in Table 1. […] In order to obtain highly reliable data, it is preferable that the compound binding detection signal be 5RU or more.

- Signal change (Method No. 1 (Example): 50 μM in 1×PBS pH7.4, fluid 100 μl, flow 100 μl/sec, replacement 1 sec, stop 119 sec): 15 RU
- Signal change (Method No. 2 (Example): 50 μM in 1×PBS pH7.4, fluid 100 μl, flow 10 μl/sec, replacement 10 sec, stop 110 sec): 12 RU
- Signal change (Method No. 3 (Example): 50 μM in 1×PBS pH7.4, fluid 150 μl, flow 5 μl/sec, replacement 30 sec, stop 90 sec): 10 RU
- Signal change (Method No. 4 (Example): 50 μM in 1×PBS pH7.4, fluid 200 μl, flow 20 μl/sec, replacement 10 sec, stop 110 sec): 10 RU
- Signal change (Method No. 5 (Comparative example): 50 μM in 1×PBS pH7.4, fluid 300 μl, flow 2.5 μl/sec, replacement 120 sec, stop 0 sec): −1 RU
- Signal change (Method No. 6 (Comparative example): 50 μM in 1×PBS pH7.4, fluid 600 μl, flow 5 μl/sec, replacement 120 sec, stop 0 sec): −4 RU
- Signal change (Method No. 7 (Comparative example): 50 μM in 1×PBS pH7.4, fluid 1200 μl, flow 10 μl/sec, replacement 120 sec, stop 0 sec): −10 RU
- Signal change (Method No. 8 (Comparative example): 50 μM in 1×PBS pH7.4, fluid 2400 μl, flow 20 μl/sec, replacement 120 sec, stop 0 sec): −20 RU
Structure (SMILES): NS(=O)(=O)c1cc2c(cc1Cl)NCNS2(=O)=O [Hydrochlorothiazide]
